Measured values from patent publication US20120090502A1, “DIS-AZO COMPOUND AND OIL INK AND ELECTROWETTING DISPLAYS COMPRISING THE SAME” (JINTEX CORPORATION LTD., priority 2010, published 2012).

Assays:
Type in all cases: physicochemical
[1] = solubility in dodecane
[2] = maximum absorption wavelength and molar absorption coefficient in dodecane; settings: for wavelength (nm)/dodecane: maximum absorption wavelength
[3] = oil ink tested by UV-Vis spectrophotometer; parameters: FoM / value of a / value of b: scale not given here; settings: oil ink in dodecane; for FoM: Figure of Merit = ε×C; for full width at half maximum (nm): wavelength range at half height of absorption at λ max
Method: (§1) 1.0 g of purified dye (dis-azo compound of the present invention) weighed was dispersed in 10 g of dodecane and then heated to 80° C. and stirred for one hour. After that, the mixture solution was removed to a ultrasonic oscillator and oscillated for one hour and then filtered through 0.45 μm filter to obtain the oil ink of the present invention. The oil ink of the present invention was tested by UV-Vis spectrophotometer. According to Table 3, ail of the oil ink of the present invention fulfills elementary conditions of oil ink for electrowetting display.

[4] = oil ink performance test: viscosity and surface tension; parameters: surface tension (dyne/cm^2): unit not given here; settings: for surface tension (dyne/cm^2): oil ink in dodecane; for viscosity (cp): oil ink: 1.0 g dye dispersed in 10 g dodecane, filtered 0.45 μm
Method: as §1, with “The oil ink of the present invention was tested by UV-Vis spectrophotometer.” left out

solubility (%) [1] | ε (molar absorption coefficient) [2] | wavelength (nm)/dodecane [2] | FoM [3] | full width at half maximum (nm) [3] | surface tension (dyne/cm^2) [4] | viscosity (cp) [4] | value of L ([3]; hue) | value of a ([3]; hue) | value of b ([3]; hue) | Compound
2.15% | 9.11 × 10^3 | 560 nm | 232 | 320 nm | 23.6 | 2.42 cp |  |  |  | CCCCCCCCCCc1ccc(N=Nc2ccc(N=Nc3ccc4c5c(cccc35)NC(C)(CCCC)N4)c3ccccc23)cc1 (racemic) [D10-C1,4]
4.00% | 3.41 × 10^3 | 560 nm | 191 | 250 nm | 24.5 | 2.21 cp |  |  |  | CCCCc1ccc(N=Nc2ccc(N=Nc3ccc4c5c(cccc35)NC(CC(C)C)(CC(C)C)N4)c3ccccc23)cc1 [D4-C4,4]
6.00% | 7.05 × 10^3 | 580 nm | 526 | 300 nm | 23.2 | 2.42 cp |  |  |  | CCCCCCCCc1ccc(N=Nc2ccc(N=Nc3ccc4c5c(cccc35)NC(CC)(CC)N4)c3ccccc23)cc1 [D8-C2,2]
2.96% | 9.50 × 10^3 | 580 nm | 320 | 300 nm | 23.5 | 2.33 cp |  |  |  | CCCCCCCCc1ccc(N=Nc2ccc(N=Nc3ccc4c5c(cccc35)NC(CC(C)C)(CC(C)C)N4)c3ccccc23)cc1 [D8-C4,4]
8.00% | 8.13 × 10^3 | 580 nm | 779 | 320 nm | 25.1 | 2.35 cp | 0.01 | 0.38 | −0.18 | CCCCCCCCCCc1ccc(N=Nc2ccc(N=Nc3ccc4c5c(cccc35)NC(CC)(CC)N4)c3ccccc23)cc1 [D10-C2,2]
1.23% | 9.95 × 10^3 | 590 nm | 136 | 320 nm | 24.8 | 2.55 cp |  |  |  | CCCCCCCCCCc1ccc(N=Nc2ccc(N=Nc3ccc4c5c(cccc35)NC(CC(C)C)(CC(C)C)N4)c3ccccc23)cc1 [D10-C4,4]
